# Structures can show the parent of a compound that is named as a salt.
# Test system: depressant effects induced in mice by tetrabenazine
# Assay: Blocking of the depressant effects induced in mice by intravenous tetrabenazine (modified Englehardt procedure)
# Type: in vivo
# Settings: Mus musculus, IP
# Description: The activity of the compounds was determined by their effectiveness in blocking the depressant effects which are induced in mice by the intravenous administration of 2-oxo-3-isobutyl-9,10-dimethoxy-1,2,3,4,6,7-hexahydro-11bh-benzo[a] quinolizine (tetrabenazine). The procedure used was a modification of Englehardt, E. L. et al, J. Med. Chem. 11 (2), 325(1968). The ED50 values of the compounds are given in Table I; the compounds of Examples 3, 5, 7 and 8 are the preferred compounds.
smiles,measurement,value
"COc1ccc(C(O)(CCN(C)C)C2CC2)cc1 (centres unmarked) [Example 4, 1-Cyclopropyl-3-dimethylamino-1-(4-methoxyphenyl)-1-propanol Hydrobromide]",ED50,7.8 mg/kg
"CN(C)CCCC(O)(c1ccccc1)C1CC1 (centres unmarked) [Example 2, 1-Cyclopropyl-4-dimethylamino-1-phenyl-1-butanol Hydrochloride]",ED50,12.5 mg/kg
"CN(C)CCC(O)(c1ccc(C(F)(F)F)cc1)C1CC1 (centres unmarked) [Example 6, 1-Cyclopropyl-3-dimethylamino-1-(4-trifluoromethylphenyl)-1-propanol Hydrochloride]",ED50,12 mg/kg
"CN(C)CCC(O)(c1cccc(C(F)(F)F)c1)C1CC1 (centres unmarked) [Example 5, 1-Cyclopropyl-3-dimethylamino-1-(3-trifluoromethylphenyl)-1-propanol Hydrochloride]",ED50,2.5 mg/kg
"CN(C)CCC(O)(c1ccccc1)C1CC1 (centres unmarked) [Example 1, 1-Cyclopropyl-3-dimethylamino-1-phenyl-1-propanol Hydrochloride]",ED50,10 mg/kg
"CNCCC(O)(c1cccc(C(F)(F)F)c1)C1CC1 (centres unmarked) [Example 8, 1-Cyclopropyl-3-methylamino-1-(3-trifluoromethylphenyl)-1-propanol]",ED50,4.6 mg/kg
"CN(C)CCC(O)(c1cccc(Cl)c1)C1CC1 (centres unmarked) [Example 3, 1-Cyclopropyl-3-dimethylamino-1-(3-chlorophenyl)-1-propanol Hydrochloride]",ED50,6.4 mg/kg
"CCN(CC)CCC(O)(c1cccc(C(F)(F)F)c1)C1CC1 (centres unmarked) [Example 7, 1-Cyclopropyl-3-diethylamino-1-(3-trifluoromethylphenyl)-1-propanol Hydrochloride]",ED50,4.2 mg/kg
